The record followed here is patent publication US20220313698A1, “MODULATORS OF CYSTIC FIBROSIS TRANSMEMBRANE CONDUCTANCE REGULATOR” (Vertex Pharmaceuticals Incorporated, priority 2019, published 2022).

Each structure is given as a SMILES string.

This test has as its target CFTR-mediated chloride transport (Homo sapiens, UniProt P13569). The test can be described thus: Corrector Assay A - membrane potential dye assay (enteroid cells). Particulars: for Corrector Assay A % activity: % of chloride transport of triple combination control (1 μM (14S)-dispiro macrocycle + 3 μM tezacaftor + 300 nM ivacaftor); for EC50: read-out: Corrector Assay A EC50, human intestinal enteroid cells, 18-24 h incubation, acute 10 μM forskolin + 300 nM ivacaftor.

As for `CC(C)C1CC[C@@H]2CN(c3nc(-n4ccc(OCCC5C6(CC6)C56CC6)n4)ccc3C(=O)NS(=O)(=O)c3cccc(n3)N1)C(C)(C)C2` (single isomer, unassigned) [Compound 353], the “Corrector Assay A % activity” value is reported as “+++ (+++ is >60%)” and the concentration giving a half-maximal response (EC50) was less than 1 µM.
Take `CC(C)C1CC[C@@H]2CN(c3nc(-n4ccc(OCCC5C6(CC6)C56CC6)n4)ccc3C(=O)NS(=O)(=O)c3cccc(n3)N1)C(C)(C)C2` (single isomer, unassigned) [Compound 354]: the “Corrector Assay A % activity” value is reported as “+++ (+++ is >60%)” and the EC50 is less than 1 µM.
Taken in the same sequence, the figures for `CC(C)C1CC[C@@H]2CN(c3nc(-n4ccc(OCCC5(C(F)(F)F)CC5)n4)ccc3C(=O)NS(=O)(=O)c3cccc(n3)N1)C(C)(C)C2` (single isomer, unassigned) [Compound 357] were “+++ (+++ is >60%)” and less than 1 µM.
On to `CC(C)(C)c1ccc2c(n1)N1C[C@@H](CCC(C(C)(C)O)Nc3cccc(n3)S(=O)(=O)NC2=O)CC1(C)C` (stereo partly drawn) [Compound 12, (14S)-8-tert-Butyl-17-(2-hydroxypropan-2-yl)-12,12-dimethyl-2λ^6-thia-3,9,11,18,23-pentaazatetracyclo[17.3.1.111,14.05,10]tetracosa-1(23),5(10),6,8,19,21-hexaene-2,2,4-trione], for which the “Corrector Assay A % activity” value is “+++ (+++ is >60%)” and the concentration giving a half-maximal response (EC50) is less than 1 µM.
Take `CC(C)(C)c1ccc2c(n1)N1CC(CCC(C(C)(C)O)Nc3cccc(n3)S(=O)(=O)NC2=O)CC1(C)C` (stereo not shown) [Compound 13]: the “Corrector Assay A % activity” value is “++ (++ is 30-60%)” and the concentration for a half-maximal effect (EC50) is less than 1 µM.
Regarding `CC(C)(C)c1ccc2c(n1)N1C[C@@H](CCC3CCCC(=O)N3c3cccc(n3)S(=O)(=O)NC2=O)CC1(C)C` (stereo partly drawn) [Compound 14, (10S)-16-tert-Butyl-12,12-dimethyl-22λ^6-thia-2,13,15,21,27-pentaazapentacyclo[21.3.1.110,13.02,7.014,19]octacosa-1(26),14(19),15,17,23(27),24-hexaene-3,20,22,22-tetrone], the “Corrector Assay A % activity” value is reported as “++ (++ is 30-60%)” and the half-maximal effective concentration (EC50) is less than 1 µM.
For the compound `CC(C)(C)c1ccc2c(n1)N1C[C@@H](CCC(CCCC(=O)NCc3ccccc3)Nc3cccc(n3)S(=O)(=O)NC2=O)CC1(C)C` (stereo partly drawn) [Compound 15, N-benzyl-4-[(14S)-8-tert-butyl-12,12-dimethyl-2,2,4-trioxo-2λ^6-thia-3,9,11,18,23-pentaazatetracyclo[17.3.1.111,14.05,10]tetracosa-1(23),5(10),6,8,19,21-hexaen-17-yl]butanamide], the “Corrector Assay A % activity” value is given as “+++ (+++ is >60%)” and the half-maximal effective concentration (EC50) was less than 1 µM.
On the same counts, the results for `CC(C)(C)NC(=O)CCCC1CC[C@@H]2CN(c3nc(C(C)(C)C)ccc3C(=O)NS(=O)(=O)c3cccc(n3)N1)C(C)(C)C2` (stereo partly drawn) [Compound 16, N-tert-butyl-4-[(14S)-8-tert-butyl-12,12-dimethyl-2,2,4-trioxo-2λ^6-thia-3,9,11,18,23-pentaazatetracyclo[17.3.1.111,14.05,10]tetracosa-1(23),5(10),6,8,19,21-hexaen-17-yl]butanamide] are “+++ (+++ is >60%)” and less than 1 µM.
For `CC(C)N(C(=O)CCCC1CC[C@@H]2CN(c3nc(C(C)(C)C)ccc3C(=O)NS(=O)(=O)c3cccc(n3)N1)C(C)(C)C2)C(C)C` (stereo partly drawn) [Compound 17, 4-[(14S)-8-tert-butyl-12,12-dimethyl-2,2,4-trioxo-2λ^6-thia-3,9,11,18,23-pentaazatetracyclo[17.3.1.111,14.05,10]tetracosa-1(23),5(10),6,8,19,21-hexaen-17-yl]-N,N-bis(propan-2-yl)butanamide], the “Corrector Assay A % activity” value is listed as “+++ (+++ is >60%)” and the concentration giving a half-maximal response (EC50) was less than 1 µM.
As for `CN(C)C(=O)CCCC1CC[C@@H]2CN(c3nc(C(C)(C)C)ccc3C(=O)NS(=O)(=O)c3cccc(n3)N1)C(C)(C)C2` (stereo partly drawn) [Compound 18, 4-[(14S)-8-tert-Butyl-12,12-dimethyl-2,2,4-trioxo-2λ^6-thia-3,9,11,18,23-pentaazatetracyclo[17.3.1.111,14.05,10]tetracosa-1(23),5(10),6,8,19,21-hexaen-17-yl]-N,N-dimethylbutanamide], the “Corrector Assay A % activity” value is on record as “+++ (+++ is >60%)” and the 50% effective concentration (EC50) was less than 1 µM.
As for `CC(C)(C)c1ccc2c(n1)N1C[C@@H](CCC(CCCC(=O)O)Nc3cccc(n3)S(=O)(=O)NC2=O)CC1(C)C` (stereo partly drawn) [Compound 19, 4-[(14S)-8-tert-Butyl-12,12-dimethyl-2,2,4-trioxo-2λ^6-thia-3,9,11,18,23-pentaazatetracyclo[17.3.1.111,14.05,10]tetracosa-1(23),5(10),6,8,19,21-hexaen-17-yl]butanoic acid], the “Corrector Assay A % activity” value is “+++ (+++ is >60%)” and the EC50 was 1 to 3 µM.
For the compound `CC(C)(C)c1ccc2c(n1)N1C[C@@H](CCC(c3ccc(C4CC(F)(F)C4)cn3)Nc3cccc(n3)S(=O)(=O)NC2=O)CC1(C)C` (stereo partly shown) [Compound 21], the “Corrector Assay A % activity” value was “+++ (+++ is >60%)” and the EC50 was less than 1 µM.
For `CC(C)(C)c1ccc2c(n1)N1C[C@@H](CCC(c3ccc(C4COC4)cn3)Nc3cccc(n3)S(=O)(=O)NC2=O)CC1(C)C` (stereo partly drawn) [Compound 29, (14S)-8-tert-butyl-12,12-dimethyl-17-[5-(oxetan-3-yl)pyridin-2-yl]-2λ^6-thia-3,9,11,18,23-pentaazatetracyclo[17.3.1.111,14.05,10]tetracosa-1(23),5(10),6,8,19,21-hexaene-2,2,4-trione], the “Corrector Assay A % activity” value was “+++ (+++ is >60%)” and the EC50 was less than 1 µM.
On the same counts, the results for `CC(C)(C)c1ccc2c(n1)N1C[C@@H](CC[C@H](c3cccc(CNCC(F)(F)F)n3)Nc3cccc(n3)S(=O)(=O)NC2=O)CC1(C)C` [Compound 50, (14S,17R)-8-tert-Butyl-12,12-dimethyl-17-(6-{[(2,2,2-trifluoroethyl)amino]methyl}pyridin-2-yl)-2λ^6-thia-3,9,11,18,23-pentaazatetracyclo[17.3.1.111,14.05,10]tetracosa-1(22),5,7,9,19(23),20-hexaene-2,2,4-trione] are “+++ (+++ is >60%)” and 1 to 3 µM.
Turning to `Cn1nccc1-c1ccc(C2CC[C@@H]3CN(c4nc(C(C)(C)C)ccc4C(=O)NS(=O)(=O)c4cccc(n4)N2)C(C)(C)C3)nc1` (stereo partly shown) [Compound 57], the “Corrector Assay A % activity” value was “++ (++ is 30-60%)” and the EC50 is less than 1 µM.
`Cn1nccc1-c1ccc(C2CC[C@@H]3CN(c4nc(C(C)(C)C)ccc4C(=O)NS(=O)(=O)c4cccc(n4)N2)C(C)(C)C3)nc1` (stereo partly shown) [Compound 58]: the “Corrector Assay A % activity” value was “+++ (+++ is >60%)” and the EC50 is less than 1 µM.
For `Cn1ccc(-c2ccc(C3CC[C@@H]4CN(c5nc(C(C)(C)C)ccc5C(=O)NS(=O)(=O)c5cccc(n5)N3)C(C)(C)C4)nc2)n1` (stereo partly shown) [Compound 59], the “Corrector Assay A % activity” value is “+ (+ is <30%)” and the EC50 was less than 1 µM.
Regarding `Cn1ccc(-c2ccc(C3CC[C@@H]4CN(c5nc(C(C)(C)C)ccc5C(=O)NS(=O)(=O)c5cccc(n5)N3)C(C)(C)C4)nc2)n1` (stereo partly shown) [Compound 60], the “Corrector Assay A % activity” value is on record as “+++ (+++ is >60%)” and the EC50 is less than 1 µM.
On the same counts, the results for `CC(C)(C)c1ccc2c(n1)N1C[C@@H](CCC(c3ccc(N)cn3)Nc3cccc(n3)S(=O)(=O)NC2=O)CC1(C)C` (stereo partly shown) [Compound 63] are “+++ (+++ is >60%)” and less than 1 µM.
In the case of `CC(C)(C)c1ccc2c(n1)N1C[C@@H](CCC(c3ccc(N)cn3)Nc3cccc(n3)S(=O)(=O)NC2=O)CC1(C)C` (stereo partly drawn) [Compound 64, (14S)-17-(5-aminopyridin-2-yl)-8-tert-butyl-12,12-dimethyl-2λ^6-thia-3,9,11,18,23-pentaazatetracyclo[17.3.1.111,14.05,10]tetracosa-1(23),5(10),6,8,19,21-hexaene-2,2,4-trione], the “Corrector Assay A % activity” value is listed as “++ (++ is 30-60%)” and the EC50 was less than 1 µM.
On to `CC(C)(C)c1ccc2c(n1)N1C[C@@H](CC[C@H](c3cccc(-c4cn[nH]c4)n3)Nc3cccc(n3)S(=O)(=O)NC2=O)CC1(C)C` [Compound 67], for which the “Corrector Assay A % activity” value is given as “+++ (+++ is >60%)” and the 50% effective concentration (EC50) was less than 1 µM.
For the compound `CC(C)(C)c1ccc2c(n1)N1C[C@@H](CC[C@H](c3cccc(C(N)=O)n3)Nc3cccc(n3)S(=O)(=O)NC2=O)CC1(C)C` [Compound 70, 6-[(14S,17R)-8-tert-butyl-12,12-dimethyl-2,2,4-trioxo-2λ^6-thia-3,9,11,18,23-pentaazatetracyclo[17.3.1.111,14.05,10]tetracosa-1(22),5,7,9,19(23),20-hexaen-17-yl]pyridine-2-carboxamide], the “Corrector Assay A % activity” value is “++ (++ is 30-60%)” and the EC50 is less than 1 µM.
For `CC(=O)NCc1ccc(C2CC[C@@H]3CN(c4nc(C(C)(C)C)ccc4C(=O)NS(=O)(=O)c4cccc(n4)N2)C(C)(C)C3)nc1` (stereo partly shown) [Compound 71], the “Corrector Assay A % activity” value was “++ (++ is 30-60%)” and the EC50 was less than 1 µM.
`CC(=O)NCc1ccc(C2CC[C@@H]3CN(c4nc(C(C)(C)C)ccc4C(=O)NS(=O)(=O)c4cccc(n4)N2)C(C)(C)C3)nc1` (stereo partly drawn) [Compound 72, N-({6-[(14S)-8-tert-Butyl-12,12-dimethyl-2,2,4-trioxo-2λ^6-thia-3,9,11,18,23-pentaazatetracyclo[17.3.1.111,14.05,10]tetracosa-1(23),5(10),6,8,19,21-hexaen-17-yl]pyridin-3-yl}methyl)acetamide]: the “Corrector Assay A % activity” value is given as “++ (++ is 30-60%)” and the concentration for a half-maximal effect (EC50) is less than 1 µM.
With `CC(C)(C)c1ccc2c(n1)N1C[C@@H](CC[C@H](c3cccc(-c4ccn[nH]4)n3)Nc3cccc(n3)S(=O)(=O)NC2=O)CC1(C)C` [Compound 77], the “Corrector Assay A % activity” value was “++ (++ is 30-60%)” and the EC50 is less than 1 µM.
On to `CC(C)(C)c1ccc2c(n1)N1C[C@@H](CCC(c3ccc(CO)cn3)Nc3cccc(n3)S(=O)(=O)NC2=O)CC1(C)C` (stereo partly shown) [Compound 78], for which the “Corrector Assay A % activity” value is given as “+++ (+++ is >60%)” and the EC50 is less than 1 µM.

As a reminder, the EC50 is the concentration that produces a half-maximal response.
